Data on three compounds can be found in patent publication US20240099989A1, “AGENT FOR PREVENTING OR IMPROVING PERIPHERAL NEUROPATHY” (KINKI UNIVERSITY, priority 2021, published 2024).

The assay has as its system Peripheral Neuropathy in a Mouse Caused by Vincristine. In kind it is in vivo, Balb/c mice. The conditions noted are these: 0.2 mg/kg vincristine + 100 mg/kg orally daily from Day 6 (therapy); from Day 12 onwards. From the text: Six to seven-week-old female Balb/c mice were used for the tests. All the mice were acclimated for seven days after arrival. Then, the mice were grouped into the following four groups: a control group, a group receiving vincristine, a group receiving xylitol, and a group receiving vincristine and xylitol (a group receiving vincristine+xylitol). Each group consisted of five mice.
On Day 8 of acclimation, the mice in the group receiving vincristine and the group receiving vincristine+xylitol were intraperitoneally administered with vincristine at a dose of 0.2 mg/kg. This day was designated as Day 0 of administration. Thereafter, these mice were intraperitoneally administered with vincristine at a daily dose of 0.2 mg/kg on Day 7 and Day 14.
The mice in the group receiving xylitol and the group receiving vincristine+xylitol were orally administered with xylitol at a dose of 5 mg/kg daily from Day 0.
The mice in the four groups described in (7) of the present example (Example 1) were placed in a cage, and the avoidance response frequency (score) was measured by pressing a filament with a bending force of 0.16 g against the back of the hind paw.
Six to seven-week-old female Balb/c mice were used for the tests as with Example 1. All the mice were acclimated for seven days after arrival. Then, the mice were grouped into the following four groups: a control group, a group receiving vincristine, a group receiving xylitol, and a group receiving vincristine and xylitol (a group receiving vincristine+xylitol). Each group consisted of five mice. […]
For the mice in the four groups described in (9) of the present example (Example 2), the avoidance response frequency (score) was measured by pressing a filament with a bending force of 0.16 g against the back of the hind paw. […]
The mice in the four groups described in (7) of the present example (Example 3) were placed in a cage, and the avoidance response frequency (score) was measured by pressing a filament with a bending force of 0.16 g against the back of the hind paw. […]

In the case of `OC[C@@H](O)[C@H](O)CO` [D-threitol], the avoidance response score result is on record as “maintained a score clearly lower than that of the group receiving vincristine”.

`OC[C@H](O)[C@H](O)[C@H](O)[C@@H](O)CO` [L-talitol]: the avoidance response score result is recorded as “maintained a score clearly lower than that of the group receiving vincristine”.

`OC[C@@H](O)[C@H](O)[C@@H](O)CO` [xylitol]: the avoidance response score entry is given as “maintained a score clearly lower than that of the group receiving vincristine”.
